# From PubChem BioAssay AID248 (DTP/NCI, 2004)
# “And” between values parts separate entries of the source, which are not always exact repeats. Equal entries are not always repeated. Toxic doses and inconclusive results are not listed.
# System: L1210 leukemia ip in BDF1 mice, survival T/C
# Experiment: NCI In Vivo Anticancer Drug Screen. Data for tumor model L1210 Leukemia (intraperitoneal) in B6D2F1 (BDF1) mice
# Settings: endpoint: mean survival time, higher = longer survival
# Summary of the method: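 Value reflects the ratio of survival in compound-treated mice to survival in vehicle-treated controls, with both groups carrying the same transplanted tumor.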
# [1] = dose: 100.0 mg/kg/injection, schedule: Q01DX009 (ip), vehicle: saline with Tween-80
# [2] = dose: 100.0 mg/kg/injection, schedule: Q04DX003 (ip), vehicle: saline with Tween-80
# [3] = dose: 100.0 mg/kg/injection, schedule: Q04DX003 (ip), vehicle: saline
# [4] = dose: 200.0 mg/kg/injection, schedule: Q01DX009 (ip), vehicle: saline with Tween-80
# [5] = dose: 200.0 mg/kg/injection, schedule: Q04DX003 (ip), vehicle: saline
# [6] = dose: 400.0 mg/kg/injection, schedule: Q04DX003 (ip), vehicle: saline with Tween-80
# [7] = dose: 100.0 mg/kg/injection, schedule: Q01DX001 (ip), vehicle: Klucel (hydroxypropylcellulose) (HPC)
# [8] = dose: 200.0 mg/kg/injection, schedule: Q01DX001 (ip), vehicle: Klucel (hydroxypropylcellulose) (HPC)
# [9] = dose: 100.0 mg/kg/injection, schedule: Q01DX009 (ip), vehicle: Klucel (hydroxypropylcellulose) (HPC)
# [10] = dose: 200.0 mg/kg/injection, schedule: Q01DX009 (ip), vehicle: Klucel (hydroxypropylcellulose) (HPC)
# [11] = dose: 400.0 mg/kg/injection, schedule: Q01DX009 (ip), vehicle: Klucel (hydroxypropylcellulose) (HPC)
# [12] = dose: 100.0 mg/kg/injection, schedule: Q01DX009 (ip), vehicle: saline
# [13] = dose: 200.0 mg/kg/injection, schedule: Q01DX009 (ip), vehicle: saline
# [14] = dose: 400.0 mg/kg/injection, schedule: Q01DX009 (ip), vehicle: saline
# [15] = dose: 100.0 mg/kg/injection, schedule: Q04DX003 (ip), vehicle: Klucel (hydroxypropylcellulose) (HPC)
# [16] = dose: 200.0 mg/kg/injection, schedule: Q04DX003 (ip), vehicle: Klucel (hydroxypropylcellulose) (HPC)
# [17] = dose: 400.0 mg/kg/injection, schedule: Q04DX003 (ip), vehicle: Klucel (hydroxypropylcellulose) (HPC)
# [18] = dose: 12.5 mg/kg/injection, schedule: Q01DX009 (ip), vehicle: saline
# [19] = dose: 25.0 mg/kg/injection, schedule: Q01DX009 (ip), vehicle: saline
# [20] = dose: 50.0 mg/kg/injection, schedule: Q01DX009 (ip), vehicle: saline
# [21] = dose: 200.0 mg/kg/injection, schedule: Q04DX003 (ip), vehicle: saline with Tween-80
# [22] = dose: 400.0 mg/kg/injection, schedule: Q01DX009 (ip), vehicle: saline with Tween-80
structure (smiles),measurement,setting,value
COC(=O)N1c2ccccc2C=CC1C#N (centres undefined),T/C,"dose: 44.0 mg/kg/injection, schedule: Q04DX002 (ip), vehicle: saline with Tween-80",151 % of control
same,T/C,"dose: 44.0 mg/kg/injection, schedule: Q04DX003 (ip), vehicle: saline with Tween-80",109 % of control
same,T/C,"dose: 44.0 mg/kg/injection, schedule: Q04DX003 (ip), vehicle: saline",108 % of control
same,T/C,"dose: 50.0 mg/kg/injection, schedule: Q01DX009 (ip), vehicle: saline with Tween-80",104 % of control
same,T/C,"dose: 66.0 mg/kg/injection, schedule: Q04DX002 (ip), vehicle: saline with Tween-80",173 % of control
same,T/C,"dose: 66.0 mg/kg/injection, schedule: Q04DX003 (ip), vehicle: saline with Tween-80",103 % of control
same,T/C,"dose: 66.0 mg/kg/injection, schedule: Q04DX003 (ip), vehicle: saline",101 % of control
same,T/C,"dose: 100.0 mg/kg/injection, schedule: Q01DX001 (ip), vehicle: saline with Tween-80",106 % of control
same,T/C,[1],96 % of control
same,T/C,"dose: 100.0 mg/kg/injection, schedule: Q04DX002 (ip), vehicle: saline with Tween-80",189 % of control
same,T/C,[2],109 % of control and 209 % of control
same,T/C,[3],106 % of control
same,T/C,"dose: 200.0 mg/kg/injection, schedule: Q01DX001 (ip), vehicle: saline with Tween-80",106 % of control
same,T/C,[4],102 % of control
same,T/C,"dose: 200.0 mg/kg/injection, schedule: Q04DX002 (ip), vehicle: saline with Tween-80",156 % of control
same,T/C,[5],111 % of control
same,T/C,"dose: 400.0 mg/kg/injection, schedule: Q01DX001 (ip), vehicle: saline with Tween-80",104 % of control
same,T/C,[6],96 % of control
CC12C(c3ccccc3)=C(c3ccccc3)C(C)(C3C(=O)OC(=O)C31)C1C(=O)OC(=O)C12 (centres undefined),T/C,[7],88 % of control
same,T/C,[8],100 % of control
same,T/C,"dose: 400.0 mg/kg/injection, schedule: Q01DX001 (ip), vehicle: Klucel (hydroxypropylcellulose) (HPC)",100 % of control
CCCCCCCCCCCCCCCCOc1cccc(OCc2ccccc2)c1,T/C,"dose: 100.0 mg/kg/injection, schedule: Q04DX003 (ip), vehicle: DMSO",88 % of control
same,T/C,"dose: 200.0 mg/kg/injection, schedule: Q04DX003 (ip), vehicle: DMSO",98 % of control
same,T/C,"dose: 400.0 mg/kg/injection, schedule: Q04DX003 (ip), vehicle: DMSO",93 % of control
Brc1ccc(C#Cc2ccccc2)cc1,T/C,[9],100 % of control
same,T/C,[10],100 % of control
same,T/C,[11],108 % of control
COc1ccc(/C=C2\CSC/C(=C/c3ccc(OC)cc3)C2=O)cc1,T/C,[12],91 % of control
same,T/C,[3],95 % of control
same,T/C,[13],95 % of control
same,T/C,[5],94 % of control
same,T/C,[14],87 % of control
same,T/C,"dose: 400.0 mg/kg/injection, schedule: Q04DX003 (ip), vehicle: saline",97 % of control
CCCCCCCNC(C)(C)C(SS)c1ccc(Cl)cc1 (centres undefined),T/C,"dose: 100.0 mg/kg/injection, schedule: Q01DX009 (sc), vehicle: olive oil, sesame oil, peanut oil",102 % of control
same,T/C,"dose: 200.0 mg/kg/injection, schedule: Q01DX009 (sc), vehicle: olive oil, sesame oil, peanut oil",100 % of control
same,T/C,"dose: 400.0 mg/kg/injection, schedule: Q01DX009 (sc), vehicle: olive oil, sesame oil, peanut oil",101 % of control
COc1ccc(NC(=O)Nc2ccc(C3=NCCN3)cc2)cc1NC(=O)Nc1ccc(C2=NCCN2)cc1,T/C,"dose: 8.0 mg/kg/injection, schedule: Q01DX Z (ip), vehicle: carboxymethylcellulose (CMC)",107 % of control
same,T/C,"dose: 16.0 mg/kg/injection, schedule: Q01DX Z (ip), vehicle: carboxymethylcellulose (CMC)",102 % of control
same,T/C,"dose: 31.0 mg/kg/injection, schedule: Q01DX Z (ip), vehicle: carboxymethylcellulose (CMC)",100 % of control
same,T/C,"dose: 62.0 mg/kg/injection, schedule: Q01DX Z (ip), vehicle: carboxymethylcellulose (CMC)",104 % of control
same,T/C,"dose: 125.0 mg/kg/injection, schedule: Q01DX Z (ip), vehicle: carboxymethylcellulose (CMC)",102 % of control
Cc1cccc(C)c1NC(=O)Nc1ccc(Cl)c(Cl)c1,T/C,[9],97 % of control
same,T/C,[15],95 % of control
same,T/C,[10],94 % of control
same,T/C,[16],86 % of control
same,T/C,[11],94 % of control
same,T/C,[17],91 % of control
O=[N+]([O-])c1ccc(C[Se]c2ncnc3c2ccn3C2OC(CO)C(O)C2O)cc1 (centres undefined),T/C,"dose: 6.25 mg/kg/injection, schedule: Q01DX009 (ip), vehicle: saline",95 % of control
same,T/C,"dose: 12.5 mg/kg/injection, schedule: Q01DX005 (ip), vehicle: saline",102 % of control
same,T/C,[18],91 % of control
same,T/C,"dose: 25.0 mg/kg/injection, schedule: Q01DX005 (ip), vehicle: saline",105 % of control
same,T/C,[19],102 % of control
O=C(Nc1ccccc1F)Oc1cccc(C(F)(F)F)c1,T/C,[19],103 % of control
same,T/C,[20],110 % of control
same,T/C,[12],103 % of control
CCOC(=O)CC1C(=O)Oc2ccc(O)cc21 (centres undefined) (tested in a mixture with another compound),T/C,[1],100 % of control
same,T/C,[2],96 % of control
same,T/C,[4],97 % of control
same,T/C,[21],110 % of control
same,T/C,[22],90 % of control
same,T/C,[6],94 % of control
CC(C)Oc1ccc2c(c1)Sc1ccc(Cl)cc1N2,T/C,[1],102 % of control
same,T/C,[4],94 % of control
same,T/C,[22],92 % of control
CCOC(=O)c1cnc(C)[nH]c1=O,T/C,[18],100 % of control
same,T/C,[19],99 % of control
same,T/C,[20],94 % of control
same,T/C,"dose: 100.0 mg/kg/injection, schedule: Q01DX001 (ip), vehicle: saline",108 % of control
same,T/C,[12],101 % of control
same,T/C,"dose: 200.0 mg/kg/injection, schedule: Q01DX001 (ip), vehicle: saline",101 % of control
COc1ccc(-n2c(=O)c(N=Nc3ccccc3OC)c(O)n(-c3ccc(C)cc3)c2=S)cc1,T/C,"dose: 50.0 mg/kg/injection, schedule: Q01DX001 (ip), vehicle: Klucel (hydroxypropylcellulose) (HPC)",92 % of control
same,T/C,[7],89 % of control
same,T/C,[8],91 % of control
COc1ccc(/C=C/C(=N\O)c2ccc(OC)c(OC)c2)cc1OC,T/C,[19],86 % of control
same,T/C,[20],98 % of control
same,T/C,[12],98 % of control
same,T/C,[13],100 % of control
same,T/C,[14],98 % of control
COc1ccc(Br)cc1/C=N/N=C/c1cc(Br)ccc1OC,T/C,[1],89 % of control
same,T/C,[2],111 % of control
same,T/C,[4],92 % of control
same,T/C,[21],93 % of control
same,T/C,[22],94 % of control
same,T/C,[6],95 % of control
COC(=O)C(C)Oc1ccc([N+](=O)[O-])c(O)c1[N+](=O)[O-] (centres undefined),T/C,[15],100 % of control
same,T/C,[16],91 % of control
same,T/C,[17],96 % of control
COc1cccc2c1C13CC(C)CC(C2)C1CCC(=O)N3 (centres undefined),T/C,[15],100 % of control
same,T/C,[16],93 % of control
same,T/C,[17],102 % of control
O=C(O)CC(NS(=O)(=O)Cc1ccccc1)C(=O)O (centres undefined),T/C,"dose: 100.0 mg/kg/injection, schedule: Q04DX003 (ip), vehicle: other",94 % of control
same,T/C,"dose: 200.0 mg/kg/injection, schedule: Q04DX003 (ip), vehicle: other",92 % of control
same,T/C,"dose: 400.0 mg/kg/injection, schedule: Q04DX003 (ip), vehicle: other",92 % of control
COC(=O)NC(C)(NC(=O)OC)C(=O)OC,T/C,[1],104 % of control
same,T/C,[4],106 % of control
same,T/C,[22],97 % of control
CC(C)(C)NC(=O)Nc1cccc(C(=O)O)c1,T/C,[9],97 % of control
same,T/C,[10],109 % of control
same,T/C,[11],101 % of control
BrCCOc1ccccc1,T/C,"dose: 100.0 mg/kg/injection, schedule: Q01DX009 (ip), vehicle: other",95 % of control
same,T/C,"dose: 200.0 mg/kg/injection, schedule: Q01DX009 (ip), vehicle: other",101 % of control
O=C(Nc1ccccc1C(F)(F)F)C(c1ccccc1)c1ccccc1,T/C,[9],93 % of control
same,T/C,[15],96 % of control
same,T/C,[10],88 % of control
same,T/C,[16],96 % of control
same,T/C,[11],90 % of control
same,T/C,[17],95 % of control
CCN(CC)CCOc1ccc(C=O)cc1,T/C,"dose: 100.0 mg/kg/injection, schedule: Q04DX002 (ip), vehicle: saline",99 % of control
same,T/C,"dose: 200.0 mg/kg/injection, schedule: Q04DX002 (ip), vehicle: saline",95 % of control
